From patent US20250034139A1, “AMINE COMPOUNDS HAVING ANTI-INFLAMMATORY, ANTIFUNGAL, ANTIPARASITIC, AND ANTICANCER ACTIVITY” (PHARMA CINQ, LLC, priority 2013, published 2025) come the findings set out here.

Each structure is given as a SMILES string. Marks after values point to notes of the source that are not given here.

For data set [1], the system named is imiquimod-induced dermatitis. Here is the method: Topical imiquimod (IMQ), a toll-like receptor agonist, has been established as a model of Inflammatory skin diseases including psoriasis and atopic dermatitis. Dermal inflammatory changes and gene expression in mice treated with topical imiquimod mimic human psoriasis and dermatitis (van der Fits et al., 2009; Swindell et al., 2011). The effect of a set of compounds of the invention were tested in a mouse model of imiquimod-induced dermatitis, with topical tacrolimus and dexamethasone as comparators for assessing safety and efficacy relative to standard agents used to treat dermatitis in humans.
Commercial 0.1% tacrolimus ointment (ProTopic™[…]) was also used as an active comparator. Petrolatum containing 10% ethanol was used as a control treatment.
Female Balb/C mice (8 weeks old) were randomized and divided into groups of 5 animals each. Polyethylene collars were affixed to the mice to prevent them from easily scratching their ears. 5% imiquimod was applied to both ears of each mouse (20 microliters per ear) daily for 5 days, and then every other day for the full duration of the study. […] On day 7 after initiation of imiquimod, treatment with topical agents was started. Both ears of each mouse were treated with test ointments, with one compound per mouse.
Ear thickness and PASI assessments (Psoriasis Area and Severity Index, a standard psoriasis scoring system) were recorded twice per week throughout the study. The PASI score comprises the sum of evaluations of swelling, erythema and scaling on scales from 0 to 4; the maximum PASI score is 12, and the minimum, in unaffected skin, is 0).

Data set [2] has as its system TPA induced chronic skin inflammation. The data set is described as follows: Example E: TPA induced chronic skin inflammation mouse model, ear thickness. The format is in vivo. As to conditions: day 22, 0.05 mg/ear daily topical from day 7, TPA-treated mice. The source says:
Objective: To evaluate the anti-inflammatory properties of compounds of the invention in a 12-O-tetradecanoylphorbol-13-acetate (TPA) induced chronic skin inflammation mouse model.
Topically applied phorbol esters such as TPA induce skin inflammation involving edema, macrophage and T cell infiltration and epidermal hyperplasia (Alford et al., 1992), and this system has been used as an animal model for dermatitis, mimicking aspects of human inflammatory skin disorders. TPA is also known as a tumor promoter, so that agents which inhibit hyperproliferative or angiogenic actions of TPA may inhibit tumor promotion.
Drug formulations: Compound AC was dissolved in isopropyl myristate:propylene glycol (1:1)+0.9% DMSO at the indicated concentrations. TPA was dissolved in acetone:water (99:1). Dexamethasone (0.06%) was dissolved in normal saline.
Mice: HSD-ICR(CD-1R) female mice at 8-10 weeks of age were used in this experiment.
Experimental Design: Mice were placed into six groups of 10 mice each. 20 μL of 0.01% TPA was administered to each ear on days 0, 2, 4, 7, 9, 11, 13, 15, 18, 20, and 22. 20 μL of AC at various concentrations or 20 μL of dexamethasone solution was applied to the ears daily beginning on day 7, after inflammatory changes in ear thickness were established. Ear thickness was measured with calipers every three days.

For `C[C@@H]1C[C@H]2[C@@H]3CCC4=CC(=O)C=C[C@]4(C)[C@@]3(F)[C@@H](O)C[C@]2(C)[C@@]1(O)C(=O)CO` [Dexamethasone, reference compound], the “Ear thickness, Mean ± SEM” value in data set [1] (imiquimod-treated mice, topical ointment 0.06% active drug (dexamethasone 0.03%, tacrolimus 0.1%)) amounted to 0.305 ± 0.111. Besides, in data set [1] (mouse, in vivo), the “Body Weight (mean ± SEM), Final” value was 18.1 ± 0.5 g; the “Body Weight (mean ± SEM), Initial” value turned out to be 20.5 ± 0.6 g; the “D BW (g)” value is −2.4 * g; the “Hair growth on the imiquimod-affected head area, in words” value is recorded as “remained hairless”. In addition, in data set [1] (scale 0-12, topical ointment 0.06% active drug (dexamethasone 0.03%, tacrolimus 0.1%)), the “PASI Score, Mean ± SEM” value is recorded as 4.525 ± 0.375. The “Ear thickness (mm)” value in data set [2] turned out to be 0.301 ± 0.0722 mm.
